# From ChEMBL document CHEMBL1201862, “PubChem BioAssay data set” (2004)
# Calls of active or inactive are those of the source.
# Columns and labels:
# [1] = molecular target: Tyrosine-protein phosphatase non-receptor type 7 (Homo sapiens, UniProt P35236); assay: SAR analysis of chemical inhibitors of HePTP using a Fluorescent assay - Set 2. [Related pubchem assays (depositor defined):AID1059, AID1077, AID1661, AID2085, AID521]; format: functional
# [2] = molecular target: Dual specificity protein phosphatase 3 (Homo sapiens, UniProt P51452); assay: SAR VHR1 Fluorescent Assay for In Vitro dose response studies Set 2. [Related pubchem assays (depositor defined):AID1654, AID1661, AID1878]; format: functional
# Dual specificity protein phosphatase 3, sequence (P51452 whole entry): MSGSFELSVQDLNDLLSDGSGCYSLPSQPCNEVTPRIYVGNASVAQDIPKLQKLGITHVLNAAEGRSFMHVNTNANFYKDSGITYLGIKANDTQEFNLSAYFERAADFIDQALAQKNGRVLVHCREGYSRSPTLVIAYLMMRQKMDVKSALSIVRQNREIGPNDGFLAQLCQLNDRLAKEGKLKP
# [3] = Trypanosoma cruzi growth suppression in host cells – NIH3T3 host cells, beta-gal luminescence, confirmation (AID 2044); format: functional, cell-based;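 also: intracellular parasites grown in NIH/3T3 mouse fibroblasts as host cells; luminescent beta-galactosidase reporter signal from transgenic T. cruzi replicating inside host cells; inhibitors lower the luminescence signal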
# [4] = NIH3T3 cell viability loss – ATP luminescence, mouse fibroblasts, counter-screen, dose response (AID 2010); format: functional, cell-based;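 also: cells exposed to compound for about 90 hours before reading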
# [5] = molecular target: T1, Type-1 angiotensin II receptor (Homo sapiens, UniProt P30556); assay: agonist activity at AGTR1 – cell-based, uHTS hits, selectivity assay for APJ receptor agonist project, dose response (AID 488865); format: functional;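 also: beta-arrestin recruitment to AT1 measured by enzyme fragment complementation luminescence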
# T1 sequence (P30556 whole entry): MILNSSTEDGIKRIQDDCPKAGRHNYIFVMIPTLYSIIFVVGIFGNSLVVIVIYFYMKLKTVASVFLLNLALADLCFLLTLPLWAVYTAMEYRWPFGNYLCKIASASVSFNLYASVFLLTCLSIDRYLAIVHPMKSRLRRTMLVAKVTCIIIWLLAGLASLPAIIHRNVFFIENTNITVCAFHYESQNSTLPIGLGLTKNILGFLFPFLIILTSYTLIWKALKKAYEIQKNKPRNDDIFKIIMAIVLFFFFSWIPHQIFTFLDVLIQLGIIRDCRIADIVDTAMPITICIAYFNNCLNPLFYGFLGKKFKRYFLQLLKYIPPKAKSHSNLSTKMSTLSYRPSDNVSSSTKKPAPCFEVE
# Bcl-2-related protein A1 = molecular target: T2, Bcl-2-related protein A1 (Mus musculus, UniProt Q07440); format: functional;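 also: confirmatory dose–response counterscreen on Bfl-1, used to check hits from a UBC13 polyubiquitin inhibitor campaign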
# T2 sequence (Q07440 whole entry): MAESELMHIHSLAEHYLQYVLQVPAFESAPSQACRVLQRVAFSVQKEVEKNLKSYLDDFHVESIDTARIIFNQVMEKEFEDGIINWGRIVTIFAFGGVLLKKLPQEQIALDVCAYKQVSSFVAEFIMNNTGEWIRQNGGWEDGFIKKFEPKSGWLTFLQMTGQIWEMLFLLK
# [6] = molecular target: T3, Ubiquitin-conjugating enzyme E2 N (Homo sapiens, UniProt P61088); format: functional
# T3 sequence (P61088 whole entry): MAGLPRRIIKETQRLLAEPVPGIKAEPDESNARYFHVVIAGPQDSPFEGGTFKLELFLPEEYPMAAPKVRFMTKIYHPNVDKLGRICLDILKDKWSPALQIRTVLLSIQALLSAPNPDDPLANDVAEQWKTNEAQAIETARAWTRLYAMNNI
# [7] = molecular target: T3, Ubiquitin-conjugating enzyme E2 N; format: functional; remark: listed apart in the source
# Tyrosine-protein phosphatase non-receptor type 7, sequence (P35236 whole entry): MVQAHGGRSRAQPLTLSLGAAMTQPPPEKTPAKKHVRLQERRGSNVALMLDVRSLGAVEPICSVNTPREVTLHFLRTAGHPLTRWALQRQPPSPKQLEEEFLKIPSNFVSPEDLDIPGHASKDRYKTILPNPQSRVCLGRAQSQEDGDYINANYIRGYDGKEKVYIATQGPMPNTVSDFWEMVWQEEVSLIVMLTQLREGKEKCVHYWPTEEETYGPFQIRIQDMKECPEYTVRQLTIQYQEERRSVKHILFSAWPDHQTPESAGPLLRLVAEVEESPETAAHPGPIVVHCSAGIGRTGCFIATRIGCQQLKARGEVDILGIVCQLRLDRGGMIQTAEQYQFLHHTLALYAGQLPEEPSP
smiles,measurement,setting,value
Nc1c(C(=O)N2CCOCC2)sc(=S)n1-c1ccccc1,IC50,[1],> 100 µM (inactive)
same,IC50,[2],85.5 µM (active)
Clc1cccc(CN2CCc3c([nH]c4ccccc34)C2)c1,EC50,[3],3.73 µM (active)
same,EC50,[4],> 60 µM (not active)
same,EC50,[5],> 100 µM (inactive)
COc1ccc(OC)c(/C=C/C(=O)OCC(=O)c2c(N)n(C)c(=O)n(C)c2=O)c1,IC50,Bcl-2-related protein A1,> 20 µM (inactive)
same,IC50,[6],14 µM (active)
same,IC50,[7],> 20 µM (inactive)
